This passage reports inhibition results from PMC6934184, “Selective DNA-PKcs inhibition extends the therapeutic index of localized radiotherapy and chemotherapy” (The Journal of Clinical Investigation, 2019).

This test has as its target T1, CDK2/cyclin A (Homo sapiens, UniProt P24941).
T1 construct: purchased Thermo Fisher Scientific (Life Technologies) SelectScreen
The experiment in a line: SelectScreen Z'LYTE. Format: biochemical. In short, it runs like this:
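Percent values come from Thermo SelectScreen profiling of NU5455, combining activity and binding assays. CSF1R was run in Z'LYTE format at Km app ATP, and CAMK1 in Adapta format with ATP listed at 10.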

As usually defined, the inhibition is the relative decrease from the control value, in per cent. On to `CN(C(=O)CN1CCOCC1)c1ccc2sc3c(-c4cccc5c(=O)cc(N6CC7CCC(C6)O7)oc45)cccc3c2c1` [NU5455], for which the inhibition at 1 µM worked out at 2.7%.
